What all share (experiment): cell-based
In one experiment the target is hNav1.7 (Homo sapiens, UniProt Q15858). It is filed as cell-based. The settings on record: IonWorks Quattro, read-out: IWQ Use Nav1.7. A general note: In patch-clamp work, channel activity is measured electrically.
Another experiment concerns the target hNav1.3 (Homo sapiens, UniProt Q9NY46). The settings on record: IonWorks Quattro, read-out: IWQ Use Nav1.3.
The target in a further experiment is hNav1.5 (Homo sapiens, UniProt Q14524). Conditions: IonWorks Quattro, read-out: IWQ Use Nav1.5.

Where two headings read alike, the source gives them in different places. Positions of bridges follow the written chain, without caps; N, C: chain ends. Non-standard residues stand in square brackets, D forms with d. Residues, ends and D or L forms follow the SMILES beside them. 1Nal = N[C@@H](Cc1cccc2ccccc12)C(=O)O; 2Pal = N[C@@H](Cc1ccccn1)C(=O)O

The source of these data is patent US9340590B2 (priority 2011, dated 2016).

Sequence of hNav1.7 (Q15858 whole entry, looked up): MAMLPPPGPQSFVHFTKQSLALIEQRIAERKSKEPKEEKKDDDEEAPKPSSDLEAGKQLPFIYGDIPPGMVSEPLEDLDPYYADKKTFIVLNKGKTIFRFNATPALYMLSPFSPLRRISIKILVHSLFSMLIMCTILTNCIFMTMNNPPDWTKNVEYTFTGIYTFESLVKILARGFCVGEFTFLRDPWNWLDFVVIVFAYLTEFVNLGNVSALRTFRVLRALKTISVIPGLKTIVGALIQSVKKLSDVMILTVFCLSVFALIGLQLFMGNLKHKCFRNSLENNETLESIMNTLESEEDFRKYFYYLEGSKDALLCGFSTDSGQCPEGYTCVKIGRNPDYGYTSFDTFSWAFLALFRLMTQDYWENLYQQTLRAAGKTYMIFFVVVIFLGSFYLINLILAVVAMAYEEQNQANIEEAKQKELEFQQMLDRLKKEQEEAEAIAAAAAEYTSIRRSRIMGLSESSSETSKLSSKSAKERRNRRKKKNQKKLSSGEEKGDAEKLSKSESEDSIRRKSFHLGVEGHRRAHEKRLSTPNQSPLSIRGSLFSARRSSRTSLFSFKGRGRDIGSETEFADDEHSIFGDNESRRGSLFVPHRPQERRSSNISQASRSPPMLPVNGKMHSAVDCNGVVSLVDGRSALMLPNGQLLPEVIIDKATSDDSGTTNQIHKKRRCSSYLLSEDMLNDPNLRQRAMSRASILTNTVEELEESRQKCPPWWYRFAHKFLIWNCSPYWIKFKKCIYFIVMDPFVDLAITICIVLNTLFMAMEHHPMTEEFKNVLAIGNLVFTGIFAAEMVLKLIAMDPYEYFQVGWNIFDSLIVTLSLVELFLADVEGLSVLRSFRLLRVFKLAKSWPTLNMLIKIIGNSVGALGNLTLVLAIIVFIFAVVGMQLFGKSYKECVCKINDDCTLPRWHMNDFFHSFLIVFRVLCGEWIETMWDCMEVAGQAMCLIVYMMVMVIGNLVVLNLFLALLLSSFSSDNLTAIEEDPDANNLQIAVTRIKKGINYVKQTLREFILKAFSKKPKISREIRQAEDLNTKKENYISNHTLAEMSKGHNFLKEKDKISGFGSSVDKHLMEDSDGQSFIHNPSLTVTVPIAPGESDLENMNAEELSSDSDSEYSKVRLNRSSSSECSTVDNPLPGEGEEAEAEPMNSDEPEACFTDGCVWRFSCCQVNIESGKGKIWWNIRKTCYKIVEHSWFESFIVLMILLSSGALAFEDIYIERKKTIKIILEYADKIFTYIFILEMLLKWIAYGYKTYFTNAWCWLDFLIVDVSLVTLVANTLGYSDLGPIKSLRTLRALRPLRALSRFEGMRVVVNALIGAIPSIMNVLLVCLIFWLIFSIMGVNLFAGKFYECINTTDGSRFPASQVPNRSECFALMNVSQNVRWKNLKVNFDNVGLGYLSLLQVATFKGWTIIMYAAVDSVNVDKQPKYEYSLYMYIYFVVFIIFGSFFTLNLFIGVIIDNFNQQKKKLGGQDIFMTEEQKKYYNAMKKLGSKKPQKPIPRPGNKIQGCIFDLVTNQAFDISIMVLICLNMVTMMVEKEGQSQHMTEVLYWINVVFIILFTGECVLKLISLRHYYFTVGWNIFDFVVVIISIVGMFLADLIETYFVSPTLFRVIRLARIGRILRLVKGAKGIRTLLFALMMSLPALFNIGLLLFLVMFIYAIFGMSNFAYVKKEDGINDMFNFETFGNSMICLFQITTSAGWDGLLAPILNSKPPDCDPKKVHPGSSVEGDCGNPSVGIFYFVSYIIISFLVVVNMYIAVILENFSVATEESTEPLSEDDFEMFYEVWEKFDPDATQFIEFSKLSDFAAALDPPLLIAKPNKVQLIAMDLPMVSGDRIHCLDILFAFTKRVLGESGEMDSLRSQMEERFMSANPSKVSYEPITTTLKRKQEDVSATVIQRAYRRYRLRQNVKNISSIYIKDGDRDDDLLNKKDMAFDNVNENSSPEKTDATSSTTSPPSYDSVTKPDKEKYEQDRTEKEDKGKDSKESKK
Sequence of hNav1.3 (Q9NY46 whole entry, looked up): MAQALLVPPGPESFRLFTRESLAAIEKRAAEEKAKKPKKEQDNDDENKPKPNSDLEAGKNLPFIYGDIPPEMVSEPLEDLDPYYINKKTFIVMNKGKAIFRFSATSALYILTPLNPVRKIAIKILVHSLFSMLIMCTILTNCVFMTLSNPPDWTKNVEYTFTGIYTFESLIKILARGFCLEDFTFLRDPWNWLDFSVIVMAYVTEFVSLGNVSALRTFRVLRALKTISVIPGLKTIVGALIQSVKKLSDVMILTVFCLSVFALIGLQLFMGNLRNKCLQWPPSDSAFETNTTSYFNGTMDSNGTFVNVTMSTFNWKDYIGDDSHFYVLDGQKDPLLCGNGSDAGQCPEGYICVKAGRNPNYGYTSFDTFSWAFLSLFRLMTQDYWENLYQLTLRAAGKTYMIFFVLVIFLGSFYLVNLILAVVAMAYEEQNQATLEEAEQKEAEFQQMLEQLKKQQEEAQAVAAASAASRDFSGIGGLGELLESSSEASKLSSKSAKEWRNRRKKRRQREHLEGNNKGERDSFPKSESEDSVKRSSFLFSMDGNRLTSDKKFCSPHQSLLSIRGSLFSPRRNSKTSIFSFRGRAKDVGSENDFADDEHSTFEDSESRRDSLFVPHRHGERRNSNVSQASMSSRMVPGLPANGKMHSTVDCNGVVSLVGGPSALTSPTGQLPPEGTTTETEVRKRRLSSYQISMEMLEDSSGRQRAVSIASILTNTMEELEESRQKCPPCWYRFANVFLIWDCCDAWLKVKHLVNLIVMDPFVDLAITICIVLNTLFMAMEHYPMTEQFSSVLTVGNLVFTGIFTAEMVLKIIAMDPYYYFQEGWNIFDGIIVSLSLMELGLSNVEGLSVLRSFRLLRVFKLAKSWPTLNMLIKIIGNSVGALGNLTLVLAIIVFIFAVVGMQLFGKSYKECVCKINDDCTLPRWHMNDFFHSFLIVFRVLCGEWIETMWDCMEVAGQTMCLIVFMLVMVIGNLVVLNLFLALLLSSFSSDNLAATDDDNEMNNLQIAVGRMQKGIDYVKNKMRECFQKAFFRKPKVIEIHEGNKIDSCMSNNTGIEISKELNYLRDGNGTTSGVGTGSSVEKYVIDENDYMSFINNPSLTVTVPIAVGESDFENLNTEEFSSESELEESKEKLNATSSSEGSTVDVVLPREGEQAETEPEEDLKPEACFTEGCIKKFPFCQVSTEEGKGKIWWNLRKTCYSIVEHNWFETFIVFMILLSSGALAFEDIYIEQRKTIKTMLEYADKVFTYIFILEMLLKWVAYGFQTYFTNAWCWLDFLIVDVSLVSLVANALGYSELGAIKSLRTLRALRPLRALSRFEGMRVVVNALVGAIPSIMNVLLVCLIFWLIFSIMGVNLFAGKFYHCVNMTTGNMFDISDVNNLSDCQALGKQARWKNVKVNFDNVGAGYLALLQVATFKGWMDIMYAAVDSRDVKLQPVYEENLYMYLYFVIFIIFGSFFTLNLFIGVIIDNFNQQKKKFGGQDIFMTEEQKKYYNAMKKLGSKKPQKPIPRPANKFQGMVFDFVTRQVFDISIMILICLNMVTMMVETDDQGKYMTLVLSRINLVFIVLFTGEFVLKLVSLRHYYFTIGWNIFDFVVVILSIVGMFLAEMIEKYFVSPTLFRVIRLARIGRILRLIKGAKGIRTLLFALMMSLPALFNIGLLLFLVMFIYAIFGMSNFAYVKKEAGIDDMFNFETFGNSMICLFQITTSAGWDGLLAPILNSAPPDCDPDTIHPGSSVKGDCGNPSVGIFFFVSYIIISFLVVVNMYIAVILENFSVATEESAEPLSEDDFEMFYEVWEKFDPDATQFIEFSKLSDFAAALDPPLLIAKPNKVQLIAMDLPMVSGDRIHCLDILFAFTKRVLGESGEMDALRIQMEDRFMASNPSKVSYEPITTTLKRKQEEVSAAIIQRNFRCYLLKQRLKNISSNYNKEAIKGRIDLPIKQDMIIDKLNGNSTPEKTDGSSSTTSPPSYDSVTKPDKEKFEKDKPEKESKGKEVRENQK

As for `CC[C@H](C)[C@@H]1NC(=O)[C@@H]2CSSC[C@@H]3NC(=O)[C@H](C(C)C)NC(=O)[C@H](CC(C)C)NC(=O)[C@H](CC(N)=O)NC(=O)[C@@H]4CCCN4C(=O)[C@H](CCCNC(=N)N)NC(=O)[C@H](CSSC[C@H](NC(=O)[C@@H](N)CC(=O)O)C(=O)N[C@@H](CC(C)C)C(=O)NCC(=O)N[C@@H](Cc4ccccc4)C(=O)N[C@@H](CCSC)C(=O)N[C@@H](CCCNC(=N)N)C(=O)N[C@@H](CCCCN)C(=O)N2)NC(=O)[C@H](CSSC[C@@H](C(=O)N[C@@H](CCCCN)C(=O)N[C@@H](Cc2ccc(O)cc2)C(=O)N[C@H](C(=O)N[C@@H](Cc2ccccc2)C(N)=O)C(C)C)NC(=O)[C@H](Cc2c[nH]c4ccccc24)NC(=O)[C@H](CCCCN)NC(=O)[C@H](Cc2c[nH]cn2)NC(=O)[C@H](Cc2ccc(O)cc2)NC(=O)[C@H](CCCNC(=N)N)NC(=O)[C@H](CO)NC3=O)NC(=O)[C@H](CCCCN)NC(=O)[C@H](CC(=O)O)NC(=O)[C@H](CC(N)=O)NC(=O)[C@H](CC(=O)O)NC(=O)[C@@H]2CCCN2C1=O` [compound 340] (H-DCLGFMRKCIPDNDKCCRPNLVCSRYHKWCKYVF-NH2; disulfide 2-17, 9-23, 16-30), the IC50 at hNav1.7 (Table 22, use, […]) was found to be 80 nM; at hNav1.3 (Table 22, use, […]) it was 60 nM; on hNav1.5 (Table 22, use, […]), 5510 nM.

Consider `CC[C@H](C)[C@@H]1NC(=O)[C@@H]2CSSC[C@@H]3NC(=O)[C@H](C(C)C)NC(=O)[C@H](CC(C)C)NC(=O)[C@H](CC(N)=O)NC(=O)[C@@H]4CCCN4C(=O)[C@H](CCCNC(=N)N)NC(=O)[C@H](CSSC[C@H](NC(=O)[C@@H](N)CC(=O)O)C(=O)N[C@@H](CC(C)C)C(=O)NCC(=O)N[C@@H](Cc4ccccc4)C(=O)N[C@@H](CCSC)C(=O)N[C@@H](CCCNC(=N)N)C(=O)N[C@@H](CCCCN)C(=O)N2)NC(=O)[C@H](CSSC[C@@H](C(=O)N[C@@H](CCCCN)C(=O)N[C@@H](Cc2ccc(O)cc2)C(=O)N[C@@H](Cc2cccc4ccccc24)C(=O)N[C@@H](Cc2ccccc2)C(N)=O)NC(=O)[C@H](Cc2c[nH]c4ccccc24)NC(=O)[C@H](CCCNC(=N)N)NC(=O)[C@H](Cc2c[nH]cn2)NC(=O)[C@H]([C@@H](C)O)NC(=O)[C@H](CCCNC(=N)N)NC(=O)[C@H](CO)NC3=O)NC(=O)[C@H](CCCCN)NC(=O)[C@H](CC(=O)O)NC(=O)[C@H](CC(N)=O)NC(=O)[C@H](CC(=O)O)NC(=O)[C@@H]2CCCN2C1=O` [compound 442] (H-DCLGFMRKCIPDNDKCCRPNLVCSRTHRWCKY[1Nal]F-NH2; disulfide 2-17, 9-23, 16-30), for which the IC50 on hNav1.7 (use-dependent block, hNav1.7) was 30 nM; on hNav1.3 (use-dependent block, hNav1.3), 40 nM; at hNav1.5 (use-dependent block, hNav1.5) it was over 5000 nM.

Turning to `CC[C@H](C)[C@@H]1NC(=O)[C@@H]2CSSC[C@@H]3NC(=O)[C@H](C(C)C)NC(=O)[C@H](CC(C)C)NC(=O)[C@H](CC(N)=O)NC(=O)[C@@H]4CCCN4C(=O)[C@H](CCCNC(=N)N)NC(=O)[C@H](CSSC[C@H](NC(=O)[C@@H](N)CC(=O)O)C(=O)N[C@@H](CC(C)C)C(=O)NCC(=O)N[C@@H](Cc4ccccc4)C(=O)N[C@@H](CCSC)C(=O)N[C@@H](CCCNC(=N)N)C(=O)N[C@@H](CCCCN)C(=O)N2)NC(=O)[C@H](CSSC[C@@H](C(=O)N[C@@H](CCCCN)C(=O)N[C@@H](Cc2ccc(O)cc2)C(=O)N[C@H](C(=O)N[C@@H](Cc2ccccc2)C(N)=O)C(C)C)NC(=O)[C@H](Cc2c[nH]c4ccccc24)NC(=O)[C@H](CCCCN)NC(=O)[C@H](CC(C)C)NC(=O)[C@H]([C@@H](C)O)NC(=O)[C@H](CCCNC(=N)N)NC(=O)[C@H](CO)NC3=O)NC(=O)[C@H](CCCCN)NC(=O)[C@H](CC(=O)O)NC(=O)[C@H](CC(N)=O)NC(=O)[C@H](CC(=O)O)NC(=O)[C@@H]2CCCN2C1=O` [compound 111] (H-DCLGFMRKCIPDNDKCCRPNLVCSRTLKWCKYVF-NH2; disulfide 2-17, 9-23, 16-30), the IC50 on hNav1.7 (Table 23, use, […]) was determined as 1150 nM; at hNav1.3 (Table 23, use, […]), 1010 nM; on hNav1.5 (Table 23, use, […]), 6190 nM.

In the case of `CC[C@H](C)[C@@H]1NC(=O)[C@@H]2CSSC[C@@H]3NC(=O)[C@H](C(C)C)NC(=O)[C@H](Cc4ccccn4)NC(=O)[C@H](CC(N)=O)NC(=O)[C@@H]4CCCN4C(=O)[C@H](CCCNC(=N)N)NC(=O)[C@H](CSSC[C@H](NC(=O)[C@@H](N)CC(=O)O)C(=O)N[C@@H](CC(C)C)C(=O)NCC(=O)N[C@@H](Cc4ccccc4)C(=O)N[C@@H](CCSC)C(=O)N[C@@H](CCCNC(=N)N)C(=O)N[C@@H](CCCCN)C(=O)N2)NC(=O)[C@H](CSSC[C@@H](C(=O)N[C@@H](CCCCN)C(=O)N[C@@H](Cc2ccc(O)cc2)C(=O)N[C@H](C(=O)N[C@@H](Cc2ccccc2)C(N)=O)C(C)C)NC(=O)[C@H](Cc2c[nH]c4ccccc24)NC(=O)[C@H](CCCCN)NC(=O)[C@H](Cc2c[nH]cn2)NC(=O)[C@H]([C@@H](C)O)NC(=O)[C@H](CCCNC(=N)N)NC(=O)[C@H](CO)NC3=O)NC(=O)[C@H](CCCCN)NC(=O)[C@H](CC(=O)O)NC(=O)[C@H](CC(N)=O)NC(=O)[C@H](CC(=O)O)NC(=O)[C@@H]2CCCN2C1=O` [compound 318] (H-DCLGFMRKCIPDNDKCCRPN[2Pal]VCSRTHKWCKYVF-NH2; disulfide 2-17, 9-23, 16-30), the IC50 on hNav1.7 (Use) stood at 180 nM; on hNav1.3 (Use), 80 nM; at hNav1.5 (Use), 7520 nM.

`CC[C@H](C)[C@@H]1NC(=O)[C@@H]2CSSC[C@@H]3NC(=O)[C@H](C(C)C)NC(=O)[C@H](CC(C)C)NC(=O)[C@H](Cc4c[nH]c5ccccc45)NC(=O)[C@@H]4CCCN4C(=O)[C@H](CCCNC(=N)N)NC(=O)[C@H](CSSC[C@H](NC(=O)[C@@H](N)CC(=O)O)C(=O)N[C@@H](CC(C)C)C(=O)NCC(=O)N[C@@H](Cc4ccccc4)C(=O)N[C@@H](CCSC)C(=O)N[C@@H](CCCNC(=N)N)C(=O)N[C@@H](CCCCN)C(=O)N2)NC(=O)[C@H](CSSC[C@@H](C(=O)N[C@@H](CCCCN)C(=O)N[C@@H](Cc2ccc(O)cc2)C(=O)N[C@H](C(=O)N[C@@H](Cc2ccccc2)C(N)=O)C(C)C)NC(=O)[C@H](Cc2c[nH]c4ccccc24)NC(=O)[C@H](CCCCN)NC(=O)[C@H](Cc2cnc[nH]2)NC(=O)[C@H]([C@@H](C)O)NC(=O)[C@H](CCCNC(=N)N)NC(=O)[C@H](CO)NC3=O)NC(=O)[C@H](CCCCN)NC(=O)[C@H](CC(=O)O)NC(=O)[C@H](CC(N)=O)NC(=O)[C@H](CC(=O)O)NC(=O)[C@@H]2CCCN2C1=O` [compound 175] (H-DCLGFMRKCIPDNDKCCRPWLVCSRTHKWCKYVF-NH2; disulfide 2-17, 9-23, 16-30): the figures for the IC50 at hNav1.7 (Use), on hNav1.3 (Use) and on hNav1.5 (Use) were 50 nM, 20 nM and 7390 nM, respectively.

In the case of `CC[C@H](C)[C@@H]1NC(=O)[C@@H]2CSSC[C@@H]3NC(=O)[C@H](C(C)C)NC(=O)[C@H](CC(C)C)NC(=O)[C@H](CC(N)=O)NC(=O)[C@@H]4CCCN4C(=O)[C@H](CCCNC(=N)N)NC(=O)[C@H](CSSC[C@H](NC(=O)[C@@H](N)CC(=O)O)C(=O)N[C@@H](CC(C)C)C(=O)NCC(=O)N[C@@H](Cc4ccccc4)C(=O)N[C@@H](CCSC)C(=O)N[C@@H](CCCNC(=N)N)C(=O)N[C@@H](CCCCN)C(=O)N2)NC(=O)[C@H](CSSC[C@@H](C(=O)N[C@@H](CCCCN)C(=O)N[C@@H](Cc2ccc(O)cc2)C(=O)N[C@H](C(=O)N[C@@H](Cc2ccccc2)C(N)=O)C(C)C)NC(=O)[C@H](Cc2c[nH]c4ccccc24)NC(=O)[C@H](CCCCN)NC(=O)[C@H](Cc2cnc[nH]2)NC(=O)[C@H]([C@@H](C)O)NC(=O)[C@H](CCCNC(=N)N)NC(=O)[C@H](CO)NC3=O)NC(=O)[C@H](CCCCN)NC(=O)[C@H](CC(=O)O)NC(=O)[C@H](CC(N)=O)NC(=O)[C@H](Cc2c[nH]c3ccccc23)NC(=O)[C@@H]2CCCN2C1=O` [compound 172] (H-DCLGFMRKCIPWNDKCCRPNLVCSRTHKWCKYVF-NH2; disulfide 2-17, 9-23, 16-30), the values for the IC50 on hNav1.7 (Use), on hNav1.3 (Use) and at hNav1.5 (Use) were 50 nM, 40 nM and 8040 nM, respectively.

On to `CC(C)C[C@@H]1NC(=O)[C@@H](NC(=O)[C@@H](N)CC(=O)O)CSSC[C@@H]2NC(=O)[C@@H]3CSSC[C@@H](C(=O)N[C@@H](CCCCN)C(=O)N[C@@H](Cc4ccc(O)cc4)C(=O)N[C@H](C(=O)N[C@@H](Cc4ccccc4)C(N)=O)C(C)C)NC(=O)[C@H](Cc4c[nH]c5ccccc45)NC(=O)[C@H](CCCCN)NC(=O)[C@H](Cc4c[nH]cn4)NC(=O)[C@H]([C@@H](C)O)NC(=O)[C@H](CCCNC(=N)N)NC(=O)[C@H](CO)NC(=O)[C@H](CSSC[C@H](NC(=O)[C@H](CCCCN)NC(=O)[C@H](CCCNC(=N)N)NC(=O)[C@H](Cc4ccccc4)NC(=O)[C@H](C)NC(=O)CNC1=O)C(=O)N[C@@H](CC(=O)O)C(=O)N1CCC[C@H]1C(=O)N[C@@H](CC(=O)O)C(=O)N[C@@H](CC(N)=O)C(=O)N[C@@H](CC(=O)O)C(=O)N[C@@H](CCCCN)C(=O)N3)NC(=O)[C@H](C(C)C)NC(=O)[C@H](CC(C)C)NC(=O)[C@H](CC(N)=O)NC(=O)[C@@H]1CCCN1C(=O)[C@H](CCCNC(=N)N)NC2=O` [compound 702] (H-DCLGAFRKCDPDNDKCCRPNLVCSRTHKWCKYVF-NH2; disulfide 2-17, 9-23, 16-30), for which the IC50 was 720 nM at hNav1.7 (use-dependent protocol, hNav1.7); 370 nM on hNav1.3 (use-dependent protocol, hNav1.3); 43000 nM at hNav1.5 (use-dependent protocol, hNav1.5).
